Tests used:
[1] = tested on: cell-free secondary alcohol dehydrogenase (SADH) system; assay: Cofactor requirement of cell-free soluble extracts oxidizing 2-butanol; format: biochemical
Protocol: To prepare the cell-free secondary alcohol dehydrogenase (SADH) system, the washed cells were disrupted with a Wave Energy Ultrasonic Oscillator, Model W201 (Wave Energy System, Inc., Newtown, Pa.) and centrifuged at 20,000× g. for 30 minutes. […] The enzyme activity was measured with a fluorescence spectrophotometer (Perkin Elmer, Model MPF 44A) by following the formation of reduced NAD (EX 340 nm, Em 460 nm). The formation of reduced NAD was also followed with an absorption spectrophotometer at 340 nm. The assay system (3 ml.) contained: potassium phosphate buffer pH 7.0; 150 μmol.; NAD 1 μmol.; a given amount of enzyme preparation; and secondary alcohol 10 μmol. The reaction was started by the addition of substrate. One unit of enzyme activity represents the reduction of one μmole NAD per minute. Protein concentrations were determined by the Lowry method (J. Biol. Chem., 193: 255-275 (1951)).

[2] = tested on: secondary alcohol dehydrogenase; assay: Activity of purified yeast-derived secondary alcohol dehydrogenase; format: biochemical, Pichia sp. NRRL Y-11,328; conditions: for ability to act as electron acceptor/carrier: purified enzyme
[3] = tested on: Methylobacterium sp. (CRL-26, NRRL-B-11,208); assay: Conversion of n-alkanes to secondary alcohols by cell suspensions; format: cell-based; conditions: growth substrate Methane
Description: (§1) Both cell suspensions (particulate fraction) and cell-free particulate fraction of methane-grown methylotroph microorganisms are capable of catalyzing the conversion of C3 -C6 n-alkanes to the corresponding alcohols including secondary alcohols. The conditions for preparing the cell suspensions or the cell-free particulate fractions from methane-grown methylotroph microorganisms is the same as described above. The cell-free particulate fraction requires the presence of oxygen and NADH as an electron donor. […] Tables XVI and XVII show the conversion of C3 -C6 n-alkanes to the corresponding secondary alcohols using cell suspensions and cell-free particulate fractions, respectively, of methane-grown methylotroph microorganisms.

[4] = tested on: Methylococcus capsulatus (Texas, ATCC 19,069); assay: as above; format: cell-based; conditions: growth substrate Methane
Description: as §1

[5] = tested on: Methylosinus trichosporium (OB3b, NRRL-B-11,196); assay: as above; format: cell-based; conditions: growth substrate Methane
Description: as §1

[6] = tested on: Methylosinus trichosporium OB3b (NRRL B-11,196); assay: Oxidation of n-alkanes to methyl ketones by resting cell suspension; format: cell-based; conditions: cell suspension grown on methane
Protocol: (§2) The pH of the nutrient medium was adjusted to 7.0 by the addition of acid or base and 50 ml. samples of the nutrient medium were charged into a plurality of 300 ml. shaker flasks. […] The isolates had been maintained on methanol (0.4% V/V) agar plates or on agar plates under an atmosphere of methane and air having a 1:1 V/V gas ratio which had been transferred every two weeks. For growth on methanol, the medium was supplemented with 0.4% methanol. For growth on methane, the gaseous phase of the inoculated flasks was replaced with a gas mixture comprised on methane and air having a ratio of 1:1 on a V/V basis. The inoculated flasks were sealed air-tight and were incubated on a rotary shaker of orbital radius 2.5 cm. at 250 rpm and at 30° C. for two days until turbidity in the medium had developed. The cells were harvested by centrifugation at 10,000×g. at 4° C. for 30 minutes. The cell pellet was washed twice with a 0.05 M phosphate buffer at a pH of 7.0 (containing 0.02 M MgCl2). The washed cells were then suspended in a 0.05 M phosphate buffer at pH 7.0.
(§3) A 0.5 ml. sample of each washed cell suspension (2 mg. cells) was put into 10 ml. vials at 4° C. which were sealed with a rubber cap. The gaseous phase of the vials was removed with vacuum and then was replaced with a gas mixture of the substrate reactant (i.e., alkane or secondary alcohol) and oxygen at a 1:1 V/V ratio. (In the case of a liquid substrate, i.e., secondary alcohol, 10 μl of the substrate was put in the 10 ml. vials). The vials were then incubated at 30° C. on a rotary shaker at 300 rpm. Samples of product (1-3 μl) were withdrawn periodically with a microsyringe and the products were analyzed by gas chromatography (ionization flame detector column).

[7] = tested on: Methylobacterium organophilum XX; assay: as above; format: cell-based; conditions: cell suspension grown on methane
Protocol: as §2, §3

[8] = tested on: Methylomonas methanica SI (NRRL B-11,199); assay: as above; format: cell-based; conditions: cell suspension grown on methane
Protocol: as §2, §3

[9] = tested on: Methylocystis parvus OBBP (NRRL B-11,198); assay: as above; format: cell-based; conditions: cell suspension grown on methane
Protocol: as §2, §3

[10] = tested on: Methylobacter capsulatus Y (NRRL B-11,201); assay: as above; format: cell-based; conditions: cell suspension grown on methane
Protocol: as §2, §3

[11] = tested on: Methylococcus capsulatus Texas (ATCC 19069); assay: as above; format: cell-based; conditions: cell suspension grown on methane
Protocol: The pH of the nutrient medium was adjusted to 7.0 by the addition of acid or base and 50 ml. samples of the nutrient medium were charged into a plurality of 300 ml. shaker flasks. The shaker flasks were inoculated with an inoculating loop of cells from an agar plate containing homogeneous colonies of the microorganisms on the plate (the purity of the isolates was confirmed by microscopic examination). The isolates had been maintained on methanol (0.4% V/V) agar plates or on agar plates under an atmosphere of methane and air having a 1:1 V/V gas ratio which had been transferred every two weeks. For growth on methanol, the medium was supplemented with 0.4% methanol. For growth on methane, the gaseous phase of the inoculated flasks was replaced with a gas mixture comprised on methane and air having a ratio of 1:1 on a V/V basis. The inoculated flasks were sealed air-tight and were incubated on a rotary shaker of orbital radius 2.5 cm. at 250 rpm and at 30° C. for two days until turbidity in the medium had developed. The cells were harvested by centrifugation at 10,000×g. at 4° C. for 30 minutes. The cell pellet was washed twice with a 0.05 M phosphate buffer at a pH of 7.0 (containing 0.02 M MgCl2). The washed cells were then suspended in a 0.05 M phosphate buffer at pH 7.0.
as §3, with “The vials were then incubated at 30° C. on a rotary shaker at 300 rpm.” left out

## N[C@@H](CCC(=O)N[C@@H](CS)C(=O)NCC(=O)O)C(=O)O [GSH, glutathione, reference compound]
[1]
  effectiveness as cofactor for oxidation of 2-butanol: not effective
[2]; primary alcohols tested at 10^-3 M
  inhibition of secondary alcohol dehydrogenase activity (in words): strongly inhibited

## Cc1cc2nc3c(=O)[nH]c(=O)nc-3n(C[C@H](O)[C@H](O)[C@H](O)COP(=O)(O)OP(=O)(O)OC[C@H]3O[C@@H](n4cnc5c(N)ncnc54)[C@H](O)[C@@H]3O)c2cc1C [FAD, flavin adenine dinucleotide, reference compound]
[1]
  effectiveness as cofactor for oxidation of 2-butanol: not effective
[2]
  ability to act as electron acceptor/carrier: could not act as electron carrier

## CCCCCC [n-Hexane, n-hexane]
[3]
  Conversion Rate, n-alkane to secondary alcohol: 0.007 μmoles/hr/^5 mg. protein
[4]
  Conversion Rate, n-alkane to secondary alcohol: 0.01 μmoles/hr/^5 mg. protein
[5]
  Conversion Rate, n-alkane to secondary alcohol: 0.01 μmoles/hr/^5 mg. protein
[6]
  Conversion Rates, n-alkane to methyl ketone: 0.05 μmoles/hr/mg protein
[7]
  Conversion Rates, n-alkane to methyl ketone: 0.09 μmoles/hr/mg protein
[8]
  Conversion Rates, n-alkane to methyl ketone: 0.02 μmoles/hr/mg protein
[9]
  Conversion Rates, n-alkane to methyl ketone: 0.04 μmoles/hr/mg protein
[10]
  Conversion Rates, n-alkane to methyl ketone: 0.07 μmoles/hr/mg protein
[11]
  Conversion Rates, n-alkane to methyl ketone: 0.09 μmoles/hr/mg protein

## C[n+]1c2ccccc2nc2ccccc21 [phenazine methosulfate, reference compound]
[1]
  effectiveness as cofactor for oxidation of 2-butanol: not effective
[2]
  ability to act as electron acceptor/carrier: could not act as electron carrier

## NC(=O)c1ccc[n+]([C@@H]2O[C@H](COP(=O)([O-])OP(=O)(O)OC[C@H]3O[C@@H](n4cnc5c(N)ncnc54)[C@H](OP(=O)(O)O)[C@@H]3O)[C@@H](O)[C@H]2O)c1 [NADP, reference compound]
[1]
  effectiveness as cofactor for oxidation of 2-butanol: not effective
[2]
  ability to act as electron acceptor/carrier: could not act as electron carrier

## CCCCC [n-Pentane, n-pentane]
[3]
  Conversion Rate, n-alkane to secondary alcohol: 0.01 μmoles/hr/^5 mg. protein
[4]
  Conversion Rate, n-alkane to secondary alcohol: 0.032 μmoles/hr/^5 mg. protein
[5]
  Conversion Rate, n-alkane to secondary alcohol: 0.06 μmoles/hr/^5 mg. protein
[6]
  Conversion Rates, n-alkane to methyl ketone: 0.72 μmoles/hr/mg protein
[7]
  Conversion Rates, n-alkane to methyl ketone: 0.58 μmoles/hr/mg protein
[8]
  Conversion Rates, n-alkane to methyl ketone: 0.28 μmoles/hr/mg protein
[9]
  Conversion Rates, n-alkane to methyl ketone: 0.51 μmoles/hr/mg protein
[10]
  Conversion Rates, n-alkane to methyl ketone: 0.63 μmoles/hr/mg protein
[11]
  Conversion Rates, n-alkane to methyl ketone: 0.42 μmoles/hr/mg protein

## NC(=O)C1=CN([C@@H]2O[C@H](COP(=O)(O)OP(=O)(O)OC[C@H]3O[C@@H](n4cnc5c(N)ncnc54)[C@H](OP(=O)(O)O)[C@@H]3O)[C@@H](O)[C@H]2O)C=CC1 [NAD(P)H]
[1]
  effectiveness as cofactor for oxidation of 2-butanol: not effective

## O=C1C(Cl)=CC(=Nc2ccc(O)cc2)C=C1Cl [dichlorophenol iodophenol, 2,6-dichlorophenol indophenol, reference compound]
[1]
  effectiveness as cofactor for oxidation of 2-butanol: not effective
[2]
  ability to act as electron acceptor/carrier: could not act as electron carrier

Source: patent US4268630A, “Microbiological production of ketones from C3 -C6 alkanes” (priority 1979, dated 1981)
